Entries after “also recorded” stand apart in the source; their conditions may differ. Where no end group is shown, it is not given here. [ ]: non-standard residue; d: D form. Lys(N3) = [N-]=[N+]=NCCCC[C@H](N)C(=O)O
Key:
human NPY2-R = biological target: T1, human NPY2-R (Homo sapiens, UniProt P49146); assay: FRET assay at Y2-R, mitigation of adenosine stimulated cAMP at the A2b receptor (EPAC2/H188, HEK293); type: cell-based
T1 construct: host or cells: HEK293 (H188 FRET reporter)
T1 sequence (P49146 1-381): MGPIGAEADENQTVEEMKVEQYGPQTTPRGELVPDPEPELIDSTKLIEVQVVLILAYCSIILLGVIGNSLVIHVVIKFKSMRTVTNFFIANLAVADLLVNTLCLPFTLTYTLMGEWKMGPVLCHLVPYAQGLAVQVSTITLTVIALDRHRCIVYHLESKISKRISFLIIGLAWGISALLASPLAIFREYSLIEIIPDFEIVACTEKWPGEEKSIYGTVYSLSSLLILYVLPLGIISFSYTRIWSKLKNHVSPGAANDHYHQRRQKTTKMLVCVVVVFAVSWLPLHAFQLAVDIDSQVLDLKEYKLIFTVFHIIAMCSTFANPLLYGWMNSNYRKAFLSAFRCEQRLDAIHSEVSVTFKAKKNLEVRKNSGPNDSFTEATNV

human NPY1-R = biological target: T2, human NPY1-R (Homo sapiens, UniProt P25929); assay: FRET assay at Y1-R, mitigation of adenosine stimulated cAMP at the A2b receptor (EPAC2/H188, HEK293); type: cell-based; conditions: cells expressing Y1-R, partial antagonist
T2 construct: host or cells: HEK293 (H188 FRET reporter)
T2 sequence (P25929 1-384): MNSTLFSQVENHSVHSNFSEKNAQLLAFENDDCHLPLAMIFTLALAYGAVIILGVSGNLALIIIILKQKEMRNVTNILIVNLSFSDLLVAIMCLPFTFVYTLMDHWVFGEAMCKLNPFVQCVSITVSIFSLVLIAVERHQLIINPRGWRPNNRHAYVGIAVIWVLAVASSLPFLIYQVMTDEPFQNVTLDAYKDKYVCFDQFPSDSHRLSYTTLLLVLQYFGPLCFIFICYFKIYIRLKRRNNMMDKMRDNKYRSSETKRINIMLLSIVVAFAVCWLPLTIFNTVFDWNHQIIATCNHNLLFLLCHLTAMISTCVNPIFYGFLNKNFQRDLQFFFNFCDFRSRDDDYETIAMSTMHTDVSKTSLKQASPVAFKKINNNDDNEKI

rat islets = assay: Insulin secretion rate in rat islet cell perifusion, exposure and washout; type: cell-based
human GLP-1R = human GLP-1R (Homo sapiens, UniProt P43220); assay: FRET reporter assay tracking cAMP stimulation at the GLP-1R (EPAC2/H188 sensor, HEK293 cells); type: cell-based; conditions: FIG. 7
human GLP-1R, sequence (P43220 24-463): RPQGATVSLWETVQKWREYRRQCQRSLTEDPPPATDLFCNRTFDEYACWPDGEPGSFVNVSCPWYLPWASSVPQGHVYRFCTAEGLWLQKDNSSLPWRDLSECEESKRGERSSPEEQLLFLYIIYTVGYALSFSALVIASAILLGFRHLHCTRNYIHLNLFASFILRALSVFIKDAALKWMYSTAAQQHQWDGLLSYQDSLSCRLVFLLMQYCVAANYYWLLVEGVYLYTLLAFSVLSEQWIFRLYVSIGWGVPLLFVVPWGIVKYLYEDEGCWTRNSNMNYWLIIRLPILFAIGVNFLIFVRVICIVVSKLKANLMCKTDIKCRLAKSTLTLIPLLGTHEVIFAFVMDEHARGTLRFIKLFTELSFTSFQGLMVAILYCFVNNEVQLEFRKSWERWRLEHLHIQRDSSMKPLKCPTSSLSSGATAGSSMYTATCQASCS

[1] = 5-day treatment in diet-induced obese (DIO) rats; type: in vivo, rat; conditions: diet-induced obese Sprague-Dawley rats, 10 nmol/kg once daily, 5 d
Excerpt: Diet Induced Obese (DIO) rats. To generate DIO rats, young (4-wk of age) lean male Sprague Dawley rats (Charles River Laboratories, Inc. Wilmington, MA; strain code 001) were placed on a high fat diet (HFD; D12492, 60% kcal from fat, Research Diets, New Brunswick, NJ) for 4-5 months prior to the start of the experiments to attain >20% of body fat. During this time, animals had ad libitum access to food and water.
5-day Treatment in DIO rats. DIO Sprague Dawley rats (2 cohorts; 826.1 g n=9, and 642.3 g n=5) were individually housed and the animal room was maintained on a 12-h light/12-hour dark cycle. During the 5-day baseline phase, animals were administered vehicle (0.9% sterile saline solution, injectable) injections just prior to the start of the dark cycle. At the end of the baseline phase, animals were grouped based on body weight, average daily body weight gain, and food intake. […] Throughout the experiment, body weight and food intake (via hopper weighs) were assessed daily just prior to the start of the dark cycle. Fasting blood glucose was tested prior to the baseline phase and at the end of the treatment phase via handheld glucometer (One Tough Ultra).

human islets = assay: Insulin release in human islets; type: cell-based
[2] = Dose escalation study, food intake in rats; type: in vivo, rat
Method: Dose Escalation Study. Lean Sprague Dawley rats (350 g) were individually housed in cages capable of recording food intake (Accuscan Diet cages). The animal room was maintained on a 12-h light/12-hour dark cycle. The study design consisted of sequential rounds of a 2-day baseline phase, a 2-day treatment phase, and a 2-day washout phase. Body weight was assessed daily just prior to the start of the dark cycle, food and kaolin intake were available ad libitum and consumption was continuously recorded. Treatment doses were administered just prior to the start of the dark cycle via subcutaneous injection.

[3] = Intraperitoneal glucose tolerance testing after 5-d treatment in rats; type: in vivo, rat; conditions: 10 nmol/kg, pre-diabetic (DIO) rats
Method: DIO Sprague Dawley rats (803.0±102.7 g n=7) were administered a pre-treatment IPGTT with a vehicle injection. Animals were grouped based on body weight, Lee Index (a measure of adiposity; lee index=weight1/3/nasoanal length), and baseline IPGTT blood glucose excursion. […] On treatment day 5, a repeat IPGTT was performed with the assigned treatment. All weights noted are mean±Std. Dev. Metabolic testing. Intraperitoneal glucose tolerance testing (IPGTT) was performed following a 6-h fast such that the glucose bolus occurred at the start of the dark cycle; all animal handling is performed under red light. […] A second baseline sample was obtained 30 minutes later, immediately prior to the dextrose bolus (1.5 g/kg dextrose, 20% solution). Additional blood glucose measurements were taken 7, 15, 30, 45, 60, and 120 minutes post-bolus. All blood glucose measurements were made via handheld glucometers (One Touch Ultra) in duplicate; if the variation between the two measures was >5%, a third measurement was taken.

IPGTT in shrews = type: in vivo, shrew
rat pancreatic islets = assay: Static glucose stimulated insulin secretion (GSIS) in rat islets; type: cell-based; conditions: 10 mM glucose, 50 nM peptides
[4] = test system: perifused isolated rat islets; assay: Cytokine-induced damage of perifused isolated rat islets (OCR, membrane permeability); type: cell-based; conditions: cytokines IFN-γ, TNF-α, IL-1β

block of GEP44 agonism by antagonist at Y2-R (human NPY2-R; FRET, cells expressing Y2-R, potent antagonist) | block of GEP44 agonism by antagonist at Y1-R (human NPY1-R) | signalling via the Y2-R, cAMP production (human NPY2-R; FIG. 7) | signalling via the GLP-1R, cAMP production (human GLP-1R) | Compound | insulin secretion rate (ISR) (rat islets; acute exposure) | persistence of the effect on insulin secretion after washout (rat islets; exposure and washout) | body weight [1] | fasting blood glucose [1] | food intake [1] | insulin release in human islets (human islets) | 2-d avg. FI ([2]; 10 nmol/kg/d, rats) [%] | reduction in food intake over 2 days ([2]; 20 nmol/kg daily, lean Sprague-Dawley rats) [%] | 2-d avg. FI ([2]; 30 nmol/kg/d, rats) [%] | reductions in FI ([2]; preliminary dose escalation studies, dose not stated) [%] | food intake (in words) ([2]; rats, dose escalation, 2-d on each dose) | blood glucose during intraperitoneal glucose tolerance testing, GEP44 vs Ex4 [3] | glucoregulation (IPGTT) (IPGTT in shrews) | glucose stimulated insulin secretion (GSIS), as ISR (rat pancreatic islets) | fall in cytokine-induced OCR [4]
blocked GEP44 agonism | blocked GEP44 agonism |  |  | N=C(N)NCCC[C@H](NC(=O)CC1(CC(=O)N2CCN(C3c4ccccc4NC(=O)c4ccccc43)CC2)CCCC1)C(=O)NCCn1c(=O)n(-c2ccccc2)n(-c2ccccc2)c1=O (stereo partly shown) [BIIE0246, reference compound] |  |  |  |  |  |  |  |  |  |  |  |  |  |  | 
 |  | stimulate cAMP production | stimulate cAMP production | H[dS]QGTFTSDLS[Lys(N3)]YLEEEAVREFIAWLKNGGPSRHYLNLVTRQRY-NH2 [GEP44] | significantly increased | more sustained vs. Ex-4 | sustained weight loss | reduced fasting blood glucose; also recorded: significant reduction in fasting blood glucose | reduced food intake | capable of stimulating insulin release | −58 | −81.4 | −84 | > 88 | robust reduction of FI; also recorded: robust reduction of food intake | stronger reductions in blood glucose | confirmed glucoregulation | stimulated GSIS; also recorded: significantly increased | slowed the fall in cytokine-induced OCR

Reference: patent publication US12384825B2, “Monomeric peptide multi-agonist targeting the GLP1 receptor and NPY receptors” (Syracuse University, priority 2019, dated 2025)
